For assay [1], the system named is Candida albicans ATCC 60193 (cervical isolate). In words: Agar overlay zone of inhibition of yeast growth. As to conditions: Organism Growth Time Period 48 hours. It counts as cell-based. As to the method:
MRS agar was allowed to harden at a 5 mm slant. Lactobacillus crispatus CTV-05 was streaked across the diameter of the plate and was grown for 24, 48 or 72 hours under both anaerobic and ambient atmospheres. Control strains of Lactobacillus jensenii CTV-01, Lactobacillus crispatus CTV-02, Lactobacillus crispatus CTV-03, and Lactobacillus crispatus CTV-04 were grown in the same way. The plates were overlayed with YM agar with 10 mM CNNaS (sodium thiocyanate, previously reported to be an inhibitor of yeast growth) or without CNNaS. The agar overlays were inoculated with one of two strains of Candida albicans ATCC 60193 (cervical isolate) or Candida albicans ATCC 14053 (human blood isolate). Zones of inhibition were measured. […] Therefore, Lactobacillus crispatus CTV-05 inhibits yeast growth in vitro.

The subject of assay [2] is women with recurrent bacterial vaginosis. The following applies: for Percentage Women Colonized with H2O2-producing Lactobacilli / Women Colonized with H2O2-producing Lactobacilli, number: n = 15.
Method: In this study, a group of women with recurrent bacterial vaginosis (BV) was treated with 2% Clindamycin cream, once daily for three days, followed by Lactobacillus suppositories containing the Lactobacillus crispatus CTV-05 strain twice daily for three days. A group of women from the same clinic with recurrent bacterial vaginosis treated with Clindamycin cream alone were included for comparison. […] The patients were evaluated for vaginal presence of H2O2-producing Lactobacilli, and the absence of bacterial vaginosis infection.

Like-named read-outs stand apart in the source and are kept apart here.

As to “Lactobacillus crispatus CTV-02 [reference compound]”, the “Zone of Inhibition (in millimeters)” value in assay [1] is 3 to 0 mm.

For the compound “Lactobacillus jensenii CTV-01 [reference compound]”, the “Zone of Inhibition (in millimeters)” value in assay [1] is 1 to 0 mm.

For “Lactobacillus crispatus CTV-04 [reference compound]”, the “Zone of Inhibition (in millimeters)” value in assay [1] is 5 to 2 mm.

Take “Lactobacillus crispatus CTV-03 [reference compound]”: in assay [1], the “Zone of Inhibition (in millimeters)” value is “slight inhibition”.

`CCC[C@@H]1C[C@@H](C(=O)N[C@@H]([C@H]2O[C@H](SC)[C@H](O)[C@@H](O)[C@H]2O)[C@H](C)Cl)N(C)C1` [Clindamycin]: the “Percentage Women Colonized with H2O2-producing Lactobacilli” value in assay [2] (Enrollment) is recorded as 33%; in assay [2] (One month post treatment), 40%; in assay [2] (One week post treatment), 7%; in assay [2] (Three months post treatment) it was 33%. Besides, the “Women Colonized with H2O2-producing Lactobacilli, number” value in assay [2] (Enrollment) is reported as 5; in assay [2] (One month post treatment), 6; in assay [2] (One week post treatment), 1; in assay [2] (Three months post treatment) it was 5. The figures for the “Percentage Women Free of Bacterial Vaginosis” value in assay [2] (One month post treatment), in assay [2] (One week post treatment) and in assay [2] (Three months post treatment) were 53%, 87% and 26%, respectively.

For the origin of these results see US6372209B1, “Vaginal lactobacillus medicant” (Gyne Logix, Inc., priority 1997, dated 2002).
